Experiment [1] concerns DNB aptamer (RNA, aptamer) GGUGCCUUAUUCCGGACGCCGGGCCCGAAUGCUGCUACGGCAGUCGAAGACAACAUCGCGCCCUUCGGAGGCACC
Description: fluorescence increase titration. The following applies: 125 mM KCl, 5 mM MgCl2; 20 mM Hepes pH 7.4, 25°C; probe 100 nM.

The subject of experiment [2] is clone 5 (RNA, aptamer) GGAGCUCAGCCUUCACUGCGGUUGCCCUCCGUGCUUCAUGCUUCCCUGCUUCGGCAGUCGCGGUAAACCGUAGAGAAAGUUGAGGCACCACGGUCGGAUCCAC
Description: fluorescence increase titration. The following applies: 125 mM KCl, 5 mM MgCl2; 20 mM Hepes pH 7.4, 25°C; probe 1 µM.

For experiment [3], the system named is DNB aptamer (RNA, aptamer) GGUGCCUUAUUCCGGACGCCGGGCCCGAAUGCUGCUACGGCAGUCGAAGACAACAUCGCGCCCUUCGGAGGCACC
The experiment in a line: fluorescence competition. The following applies: 125 mM KCl, 5 mM MgCl2; 20 mM Hepes pH 7.4; displaces SR-DN (1 μM) from DNB (100 nM); calculated from IC50.

Experiment [4] deals with wt-DNB aptamer (RNA, aptamer) GGAGCUCAGCCUUCACUGCCUUAUUCCGGACGCCGGGCCCGAAUGCUGCUACGGCAGUCGAAGACAACAUCGCGCCCUUCGGAGGCACCACGGUCGGAUCCAC
Description: fluorescence increase titration. The following applies: 125 mM KCl, 5 mM MgCl2; 20 mM Hepes pH 7.4, 25°C; probe 100 nM.

As for `CN(C)c1ccc2c(-c3ccc(C(=O)NCCOCCOCCNc4ccc([N+](=O)[O-])cc4[N+](=O)[O-])cc3C(=O)[O-])c3ccc(=[N+](C)C)cc-3oc2c1`, the KD in experiment [1] came to 0.35 ± 0.05 µM; in experiment [2], 7.77 ± 0.9 µM.
Regarding `N=c1ccc2c(-c3ccc(C(=O)NCCOCCOCCNc4ccc([N+](=O)[O-])cc4[N+](=O)[O-])cc3C(=O)O)c3ccc(N)cc3oc-2c1`, in experiment [1], the dissociation constant (KD) came out at 4.48 ± 0.60 µM.
For the compound `O=C(NCCOCCOCCNc1ccc([N+](=O)[O-])cc1[N+](=O)[O-])c1ccc(-c2c3ccc(=O)cc-3oc3cc(O)ccc23)c(C(=O)O)c1`, the KD in experiment [1] was found to be 8.55 ± 0.53 µM; in experiment [2], 27.2 ± 3.2 µM.
Regarding `NCCOCCOCCNc1ccc([N+](=O)[O-])cc1[N+](=O)[O-]`, in experiment [3], the KD was 0.1 ± 0.014 µM.
Take `CCN(CC)c1ccc2c(-c3ccc(S(=O)(=O)NCCOCCOCCNc4ccc([N+](=O)[O-])cc4[N+](=O)[O-])cc3S(=O)(=O)[O-])c3ccc(=[N+](CC)CC)cc-3oc2c1`: the KD stood at 1.44 ± 0.08 µM in experiment [4], 0.80 ± 0.10 µM in experiment [1] and 20.1 ± 3.9 µM in experiment [2].
On to `O=[N+]([O-])c1ccc(NCCOCCOCCNS(=O)(=O)c2ccc(C3=c4cc5c6c(c4Oc4c3cc3c7c4CCCN7CCC3)CCC[N+]=6CCC5)c(S(=O)(=O)[O-])c2)c([N+](=O)[O-])c1`, for which the figures for the KD in experiment [1] and in experiment [2] were 18.0 ± 1.8 µM and 52.6 ± 17.8 µM, respectively.

Broadly, the KD is the equilibrium constant for the complex coming apart.

The values are drawn from article PMC4666381 (2015).
